# Results from PubChem BioAssay (NCI).
#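 Following 48 hours of exposure in 96-well plates, responses at five concentrations were used to interpolate endpoints linearly. GI50 is the concentration that inhibits growth by half. TGI marks complete inhibition of growth.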
# Columns and labels:
# Assay in all cases: growth of human tumour cells (NCI), 48 h
# [1] = system: SK-OV-3 ovarian
# [2] = system: CCRF-CEM leukemia
# [3] = system: NCI-H522 lung
# [4] = system: UACC-62 melanoma
# [5] = system: LOX IMVI melanoma
# [6] = system: K-562 leukemia
# [7] = system: NCI-H460 lung
# [8] = system: HOP-62 NSCLC
# [9] = system: 786-0 renal
# [10] = system: SF-295 CNS
# [11] = system: MALME-3M melanoma
# [12] = system: MDA-MB-435
# [13] = system: SN12C renal
# [14] = system: SK-MEL-28 melanoma
# [15] = system: SK-MEL-5 melanoma
# [16] = system: SW-620 colon
# [17] = system: SF-539 CNS
# [18] = system: UACC-257 melanoma
# [19] = system: ACHN renal
# [20] = system: SNB-75 CNS
# [21] = system: HOP-92 NSCLC
# [22] = system: HT29 colon
# [23] = system: U251 CNS
# [24] = system: HCT-15 colon
# [25] = system: DU-145 prostate
# [26] = system: MOLT-4 leukemia
# [27] = system: RXF 393 renal
# [28] = system: SNB-19 CNS
# [29] = system: COLO 205 colon
# [30] = system: OVCAR-4 ovarian
# [31] = system: MDA-MB-231 breast
# [32] = system: HL-60(TB) leukemia
# [33] = system: OVCAR-3 ovarian
# [34] = system: SR leukemia
# [35] = system: SF-268 CNS
# [36] = system: M14 melanoma
# [37] = system: MCF7 breast
# [38] = system: UO-31 renal
# [39] = system: EKVX NSCLC
# [40] = system: HCT-116 colon
# [41] = system: BT-549 breast
# [42] = system: HS 578T breast
# [43] = system: NCI/ADR-RES ovarian
# [44] = system: OVCAR-5 ovarian
# [45] = system: OVCAR-8 ovarian
# [46] = system: NCI-H23 lung
# [47] = system: NCI-H226 lung
# [48] = system: A498 renal
# [49] = system: PC-3 prostate
# [50] = system: TK-10 renal
# [51] = system: IGROV1 ovarian
# [52] = system: RPMI-8226 leukemia
# [53] = system: CAKI-1 renal
# [54] = system: SK-MEL-2 melanoma
# [55] = system: A549 NSCLC
# [56] = system: HCC-2998 colon
compound,measurement,setting,value
CC1OC(O[C@@H]2[C@H](O)C(CO)OC(O[C@H]3COC(O[C@H]4CC[C@]5(C)[C@H]6CC[C@]78OC[C@@]9(CCC(C)(C)C[C@H]97)[C@H](O)C[C@@]8(C)[C@]6(C)CC[C@H]5C4(C)C)[C@@H](OC4OC(CO)[C@@H](O)[C@@H](O)[C@@H]4O)[C@@H]3O)[C@H]2OC2OC[C@@H](O)[C@@H](O)[C@@H]2O)[C@@H](O)[C@@H](O)[C@H]1O (some centres not stated),GI50,[1],2410 nM
same,TGI,[1],4530 nM
same,GI50,[2],698 nM
same,TGI,[2],3260 nM
same,GI50,[3],2450 nM
same,TGI,[3],4690 nM
same,GI50,[4],2270 nM
same,TGI,[4],4340 nM
same,GI50,[5],2060 nM
same,TGI,[5],4110 nM
same,GI50,[6],2950 nM
same,TGI,[6],5980 nM
same,GI50,[7],2620 nM
same,TGI,[7],5350 nM
same,GI50,[8],2570 nM
same,TGI,[8],4940 nM
same,GI50,[9],2800 nM
same,TGI,[9],5160 nM
same,GI50,[10],2580 nM
same,TGI,[10],4760 nM
same,GI50,[11],2580 nM
same,TGI,[11],4960 nM
same,GI50,[12],2160 nM
same,TGI,[12],4220 nM
same,GI50,[13],1680 nM
same,TGI,[13],3560 nM
same,GI50,[14],809 nM
same,TGI,[14],2770 nM
same,GI50,[15],2270 nM
same,TGI,[15],4370 nM
same,GI50,[16],2550 nM
same,TGI,[16],5120 nM
same,GI50,[17],1550 nM
same,TGI,[17],3510 nM
same,GI50,[18],2850 nM
same,TGI,[18],5170 nM
same,GI50,[19],621 nM
same,TGI,[19],2570 nM
same,GI50,[20],256 nM
same,TGI,[20],1410 nM
same,GI50,[21],1850 nM
same,TGI,[21],3810 nM
same,GI50,[22],2800 nM
same,TGI,[22],5230 nM
same,GI50,[23],2690 nM
same,TGI,[23],5130 nM
same,GI50,[24],2520 nM
same,TGI,[24],4780 nM
same,GI50,[25],2470 nM
same,TGI,[25],4920 nM
same,GI50,[26],535 nM
same,TGI,[26],3270 nM
same,GI50,[27],566 nM
same,TGI,[27],2850 nM
same,GI50,[28],2140 nM
same,TGI,[28],4430 nM
same,GI50,[29],2290 nM
same,TGI,[29],4500 nM
same,GI50,[30],2250 nM
same,TGI,[30],4820 nM
same,GI50,[31],2070 nM
same,TGI,[31],4180 nM
same,GI50,[32],345 nM
same,TGI,[32],700 nM
same,GI50,[33],2750 nM
same,TGI,[33],5040 nM
same,GI50,[34],16.9 nM
same,TGI,[34],1520 nM
same,GI50,[35],2550 nM
same,TGI,[35],5130 nM
same,GI50,[36],1440 nM
same,TGI,[36],3350 nM
same,GI50,[37],2230 nM
same,TGI,[37],4830 nM
same,GI50,[38],323 nM
same,TGI,[38],1140 nM
same,GI50,[39],3040 nM
same,TGI,[39],5480 nM
same,GI50,[40],1780 nM
same,TGI,[40],3680 nM
same,GI50,[41],2360 nM
same,TGI,[41],4550 nM
same,GI50,[42],2450 nM
same,TGI,[42],5500 nM
same,GI50,[43],2640 nM
same,TGI,[43],5400 nM
same,GI50,[44],2520 nM
same,TGI,[44],4920 nM
same,GI50,[45],3500 nM
same,TGI,[45],6830 nM
same,GI50,[46],1910 nM
same,TGI,[46],4140 nM
same,GI50,[47],2730 nM
same,TGI,[47],5730 nM
same,GI50,[48],2440 nM
same,TGI,[48],4590 nM
same,GI50,[49],2560 nM
same,TGI,[49],4770 nM
same,GI50,[50],3590 nM
same,TGI,[50],5970 nM
same,GI50,[51],2310 nM
same,TGI,[51],4650 nM
same,GI50,[52],1930 nM
same,TGI,[52],4680 nM
same,GI50,[53],2390 nM
same,TGI,[53],4510 nM
same,GI50,[54],2320 nM
same,TGI,[54],4570 nM
same,GI50,[55],3070 nM
same,TGI,[55],5910 nM
same,GI50,[56],1560 nM
same,TGI,[56],3390 nM
